Measured values: publication PMC5862592, “CDK8/19 inhibition induces premature G1/S transition and ATR-dependent cell death in prostate cancer cells” (Oncotarget, 2018)
Read-outs that look alike come from different tables or passages of the source.

What was measured:
Assay in all cases: biochemical
Set-up in all cases: KINOMEscan active site-directed competition binding assay (DiscoveRx), 456 kinases, per cent of control at 300 nM
Settings in all cases: read-out: Percent of Control (%)
ACVR2A = ACVR2A (Homo sapiens, UniProt P27037)
Method in brief: (§1)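 Binding was measured with an active site-directed competition binding assay that quantifies compound–kinase interactions. Test compounds were screened at 300 nmol/L across a 456-kinase panel.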

ABL2 = ABL2 (Homo sapiens, UniProt P42684)
Method in brief: as §1

CSNK1A1L = CSNK1A1L (Homo sapiens, UniProt Q8N752)
Method in brief: as §1

PKN1 = PKN1 (Homo sapiens, UniProt Q16512)
Method in brief: as §1

HCK = HCK (Homo sapiens, UniProt P08631)
Method in brief: as §1

CSNK2A1 = CSNK2A1 (Homo sapiens, UniProt P68400)
Method in brief: as §1

NEK7 = NEK7 (Homo sapiens, UniProt Q8TDX7)
Method in brief: as §1

RET = RET (Homo sapiens, UniProt P07949)
Method in brief: as §1

[1] = target: T1, RPS6KA5(Kin.Dom.2-C-terminal) (Homo sapiens, UniProt O75582)
T1 construct: Kin.Dom.2-C-terminal
Method in brief: as §1

PFPK5(P.falciparum) = target: T2, PFPK5(P.falciparum) (Plasmodium falciparum, UniProt P61075)
T2 construct: gene MAL13P1.279
Method in brief: as §1

MLK2 = target: T3, MLK2 (Homo sapiens, UniProt Q02779)
T3 construct: gene MAP3K10
Method in brief: as §1

GCN2(Kin.Dom.2,S808G) = target: T4, GCN2(Kin.Dom.2,S808G) (Homo sapiens, UniProt Q9P2K8, S808G)
T4 construct: gene EIF2AK4; Kin.Dom.2
Method in brief: as §1

KIT(L576P) = KIT(L576P) (Homo sapiens, UniProt P10721, L576P)
Method in brief: as §1

ADCK3 = target: T5, ADCK3 (Homo sapiens, UniProt Q8NI60)
T5 construct: gene COQ8A
Method in brief: as §1

CSNK1G1 = CSNK1G1 (Homo sapiens, UniProt Q9HCP0)
Method in brief: as §1

PIK3CA(M1043I) = PIK3CA(M1043I) (Homo sapiens, UniProt P42336, M1043I)
Method in brief: as §1

SGK3 = SGK3 (Homo sapiens, UniProt Q96BR1)
Method in brief: as §1

[2] = target: T6, ABL1(H396P)-nonphosphorylated (Homo sapiens, UniProt P00519, H396P)
T6 construct: nonphosphorylated
Method in brief: as §1

MRCKA = target: T7, MRCKA (Homo sapiens, UniProt Q5VT25)
T7 construct: gene CDC42BPA
Method in brief: as §1

PAK2 = PAK2 (Homo sapiens, UniProt Q13177)
Method in brief: as §1

CSNK1E = CSNK1E (Homo sapiens, UniProt P49674)
Method in brief: as §1

T1 sequence (O75582 whole entry): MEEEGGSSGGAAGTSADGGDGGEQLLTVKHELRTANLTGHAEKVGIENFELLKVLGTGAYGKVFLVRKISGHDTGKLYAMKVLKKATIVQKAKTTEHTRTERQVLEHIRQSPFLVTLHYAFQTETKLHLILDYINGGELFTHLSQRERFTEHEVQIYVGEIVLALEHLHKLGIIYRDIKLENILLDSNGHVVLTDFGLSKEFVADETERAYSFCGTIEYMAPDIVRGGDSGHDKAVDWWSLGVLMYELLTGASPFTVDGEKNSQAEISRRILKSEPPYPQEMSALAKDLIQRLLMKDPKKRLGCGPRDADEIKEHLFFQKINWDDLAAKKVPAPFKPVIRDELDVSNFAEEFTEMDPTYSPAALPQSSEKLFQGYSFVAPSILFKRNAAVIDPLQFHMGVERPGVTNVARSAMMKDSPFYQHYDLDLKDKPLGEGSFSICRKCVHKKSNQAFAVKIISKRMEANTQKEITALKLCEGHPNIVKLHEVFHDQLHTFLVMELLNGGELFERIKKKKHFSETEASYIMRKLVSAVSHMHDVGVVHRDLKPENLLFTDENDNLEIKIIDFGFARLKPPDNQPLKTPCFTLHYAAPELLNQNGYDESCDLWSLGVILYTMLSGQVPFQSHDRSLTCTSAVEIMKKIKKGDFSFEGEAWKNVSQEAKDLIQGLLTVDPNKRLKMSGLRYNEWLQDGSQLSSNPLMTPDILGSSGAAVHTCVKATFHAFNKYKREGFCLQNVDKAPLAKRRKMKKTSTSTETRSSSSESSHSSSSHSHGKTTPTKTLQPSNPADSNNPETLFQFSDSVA
PKN1, sequence (Q16512 whole entry): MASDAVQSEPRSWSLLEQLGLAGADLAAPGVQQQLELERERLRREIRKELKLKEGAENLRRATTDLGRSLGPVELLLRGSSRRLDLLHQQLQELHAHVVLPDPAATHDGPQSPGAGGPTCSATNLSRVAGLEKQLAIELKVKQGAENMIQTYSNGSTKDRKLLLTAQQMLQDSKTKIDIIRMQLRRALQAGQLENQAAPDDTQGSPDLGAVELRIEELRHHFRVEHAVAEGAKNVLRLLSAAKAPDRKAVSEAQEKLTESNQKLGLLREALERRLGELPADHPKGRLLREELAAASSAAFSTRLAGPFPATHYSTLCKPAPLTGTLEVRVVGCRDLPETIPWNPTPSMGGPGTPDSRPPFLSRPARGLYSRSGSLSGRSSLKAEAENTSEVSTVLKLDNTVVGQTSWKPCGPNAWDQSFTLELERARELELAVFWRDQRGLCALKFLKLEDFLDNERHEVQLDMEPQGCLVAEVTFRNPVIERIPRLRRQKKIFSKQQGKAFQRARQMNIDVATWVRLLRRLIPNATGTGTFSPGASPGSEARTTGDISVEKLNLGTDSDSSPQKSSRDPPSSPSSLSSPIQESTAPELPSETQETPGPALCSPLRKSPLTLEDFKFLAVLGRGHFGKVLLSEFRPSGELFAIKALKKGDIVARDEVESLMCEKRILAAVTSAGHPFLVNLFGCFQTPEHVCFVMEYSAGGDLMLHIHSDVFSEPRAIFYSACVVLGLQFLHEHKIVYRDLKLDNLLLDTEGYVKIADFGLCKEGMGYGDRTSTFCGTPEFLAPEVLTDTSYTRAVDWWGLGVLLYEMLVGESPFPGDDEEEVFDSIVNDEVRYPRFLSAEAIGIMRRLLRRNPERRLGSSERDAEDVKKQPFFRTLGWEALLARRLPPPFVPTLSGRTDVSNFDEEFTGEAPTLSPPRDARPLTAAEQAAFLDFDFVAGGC
T5 sequence (Q8NI60 whole entry): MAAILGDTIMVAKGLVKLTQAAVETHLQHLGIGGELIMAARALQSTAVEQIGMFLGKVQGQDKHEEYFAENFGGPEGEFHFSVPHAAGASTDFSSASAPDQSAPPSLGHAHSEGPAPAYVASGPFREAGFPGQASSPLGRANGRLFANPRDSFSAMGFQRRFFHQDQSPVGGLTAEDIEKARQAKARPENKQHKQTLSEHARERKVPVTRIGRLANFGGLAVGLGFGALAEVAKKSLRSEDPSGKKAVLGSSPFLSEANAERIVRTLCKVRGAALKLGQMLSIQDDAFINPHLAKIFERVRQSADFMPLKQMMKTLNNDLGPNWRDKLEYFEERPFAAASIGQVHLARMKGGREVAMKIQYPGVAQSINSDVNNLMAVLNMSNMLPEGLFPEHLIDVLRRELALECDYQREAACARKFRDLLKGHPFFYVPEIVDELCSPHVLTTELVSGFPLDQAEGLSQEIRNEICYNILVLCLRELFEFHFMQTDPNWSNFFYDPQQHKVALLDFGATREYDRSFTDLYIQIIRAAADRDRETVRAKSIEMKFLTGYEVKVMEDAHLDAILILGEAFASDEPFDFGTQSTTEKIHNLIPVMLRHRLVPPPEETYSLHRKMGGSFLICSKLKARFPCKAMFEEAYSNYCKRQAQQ
T3 sequence (Q02779 whole entry): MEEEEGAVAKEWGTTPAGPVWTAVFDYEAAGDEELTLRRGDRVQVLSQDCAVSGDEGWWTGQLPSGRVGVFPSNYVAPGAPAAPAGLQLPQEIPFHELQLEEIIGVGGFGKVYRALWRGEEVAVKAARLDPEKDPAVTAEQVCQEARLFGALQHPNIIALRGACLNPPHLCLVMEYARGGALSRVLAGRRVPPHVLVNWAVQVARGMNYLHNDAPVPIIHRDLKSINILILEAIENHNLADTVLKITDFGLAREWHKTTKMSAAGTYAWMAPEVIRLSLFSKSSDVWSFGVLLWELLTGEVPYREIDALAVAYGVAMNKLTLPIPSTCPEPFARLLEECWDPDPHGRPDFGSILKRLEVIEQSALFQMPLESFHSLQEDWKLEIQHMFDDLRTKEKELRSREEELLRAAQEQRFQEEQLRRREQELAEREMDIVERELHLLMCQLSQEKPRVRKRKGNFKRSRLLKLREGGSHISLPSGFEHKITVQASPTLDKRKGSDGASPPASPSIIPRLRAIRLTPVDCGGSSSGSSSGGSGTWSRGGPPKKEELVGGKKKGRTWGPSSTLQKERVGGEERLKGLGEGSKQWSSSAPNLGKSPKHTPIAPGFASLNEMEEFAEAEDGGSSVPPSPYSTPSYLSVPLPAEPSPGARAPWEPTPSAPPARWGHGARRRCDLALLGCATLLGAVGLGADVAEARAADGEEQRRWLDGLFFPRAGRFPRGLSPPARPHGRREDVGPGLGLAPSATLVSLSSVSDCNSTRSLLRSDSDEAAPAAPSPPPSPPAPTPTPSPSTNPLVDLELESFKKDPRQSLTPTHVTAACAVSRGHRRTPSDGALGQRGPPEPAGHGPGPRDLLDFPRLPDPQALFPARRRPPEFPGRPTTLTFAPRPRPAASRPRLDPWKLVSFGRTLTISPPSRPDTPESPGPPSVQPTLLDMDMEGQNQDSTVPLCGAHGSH
CSNK1A1L, sequence (Q8N752 whole entry): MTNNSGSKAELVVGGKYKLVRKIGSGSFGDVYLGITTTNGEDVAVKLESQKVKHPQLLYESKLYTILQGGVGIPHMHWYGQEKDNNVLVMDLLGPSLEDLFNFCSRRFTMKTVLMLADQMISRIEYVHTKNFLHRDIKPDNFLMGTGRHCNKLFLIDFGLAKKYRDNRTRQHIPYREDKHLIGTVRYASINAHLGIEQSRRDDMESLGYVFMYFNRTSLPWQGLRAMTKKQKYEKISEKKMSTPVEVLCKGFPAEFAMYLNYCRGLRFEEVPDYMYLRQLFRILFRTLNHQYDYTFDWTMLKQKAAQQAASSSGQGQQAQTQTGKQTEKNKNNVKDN
CSNK1E, sequence (P49674 whole entry): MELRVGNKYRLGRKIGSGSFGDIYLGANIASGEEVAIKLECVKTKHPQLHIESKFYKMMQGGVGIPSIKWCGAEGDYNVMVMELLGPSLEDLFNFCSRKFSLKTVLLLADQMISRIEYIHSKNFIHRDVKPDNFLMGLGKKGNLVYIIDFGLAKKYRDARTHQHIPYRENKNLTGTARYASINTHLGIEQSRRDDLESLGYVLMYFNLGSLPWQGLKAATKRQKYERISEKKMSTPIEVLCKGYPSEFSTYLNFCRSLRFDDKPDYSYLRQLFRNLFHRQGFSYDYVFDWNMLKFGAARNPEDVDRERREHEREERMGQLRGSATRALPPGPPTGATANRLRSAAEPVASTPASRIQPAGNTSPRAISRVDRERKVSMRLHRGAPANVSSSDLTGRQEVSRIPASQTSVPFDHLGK
T2 sequence (P61075 whole entry): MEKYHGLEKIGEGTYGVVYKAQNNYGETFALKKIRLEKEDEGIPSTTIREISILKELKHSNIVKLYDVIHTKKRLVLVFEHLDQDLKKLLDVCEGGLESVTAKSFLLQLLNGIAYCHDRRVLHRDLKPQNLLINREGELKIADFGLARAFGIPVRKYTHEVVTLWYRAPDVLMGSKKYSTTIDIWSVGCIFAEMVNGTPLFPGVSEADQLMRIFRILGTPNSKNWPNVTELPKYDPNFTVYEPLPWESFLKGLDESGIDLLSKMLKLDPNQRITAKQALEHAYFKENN
CSNK1G1, sequence (Q9HCP0 whole entry): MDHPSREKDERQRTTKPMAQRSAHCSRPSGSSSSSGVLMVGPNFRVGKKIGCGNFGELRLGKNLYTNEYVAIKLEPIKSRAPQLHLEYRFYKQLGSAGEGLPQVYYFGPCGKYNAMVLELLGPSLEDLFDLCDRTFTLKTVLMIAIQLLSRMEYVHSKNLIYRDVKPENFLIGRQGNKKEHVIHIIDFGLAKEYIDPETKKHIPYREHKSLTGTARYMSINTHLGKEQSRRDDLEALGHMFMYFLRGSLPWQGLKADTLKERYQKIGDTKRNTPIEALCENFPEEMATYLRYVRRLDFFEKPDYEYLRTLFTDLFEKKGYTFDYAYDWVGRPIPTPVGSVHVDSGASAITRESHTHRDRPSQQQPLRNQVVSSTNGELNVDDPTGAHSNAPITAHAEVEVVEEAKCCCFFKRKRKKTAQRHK

O=C(/C=C/c1cnccc1-c1ccc(F)cc1)Nc1ccc(CCc2nnco2)cc1 [T-418, (2E)-3-(4-(4-fluorophenyl)pyridin-3-yl)-N-(4-(2-(1,3,4-oxadiazol-2-yl)ethyl)phenyl)acrylamide]
remaining binding at 0.3 µM (ACVR2A; sheet T-418): 91% | remaining binding at 0.3 µM (ABL2; sheet T-418): 90% | remaining binding at 0.3 µM (CSNK1A1L; sheet T-418): 92% | remaining binding at 0.3 µM (PKN1; sheet T-418): 48% | remaining binding at 0.3 µM (HCK; sheet T-418): 100% | remaining binding at 0.3 µM (CSNK2A1; sheet T-418): 84% | remaining binding at 0.3 µM (NEK7; sheet T-418): 100% | remaining binding at 0.3 µM (RET; sheet T-418): 63% | remaining binding at 0.3 µM ([1]; sheet T-418): 100% | remaining binding at 0.3 µM (PFPK5(P.falciparum); sheet T-418): 76% | remaining binding at 0.3 µM (MLK2; sheet T-418): 71% | remaining binding at 0.3 µM (GCN2(Kin.Dom.2,S808G); sheet T-418): 100% | remaining binding at 0.3 µM (KIT(L576P); sheet T-418): 100% | remaining binding at 0.3 µM (ADCK3; sheet T-418): 100% | remaining binding at 0.3 µM (CSNK1G1; sheet T-418): 97% | remaining binding at 0.3 µM (PIK3CA(M1043I); sheet T-418): 100% | remaining binding at 0.3 µM (SGK3; sheet T-418): 62% | remaining binding at 0.3 µM ([2]; sheet T-418): 97% | remaining binding at 0.3 µM (MRCKA; sheet T-418): 100% | remaining binding at 0.3 µM (PAK2; sheet T-418): 70% | remaining binding at 0.3 µM (CSNK1E; sheet T-418): 89%

Cc1ncccc1Oc1sc(C(N)=O)c2c1-c1c(cnn1C)CC2 [T-474, 1-methyl-8-((2-methylpyridin-3-yl)oxy)-4,5-dihydro-1H-thieno[3,4-g]indazole-6-carboxamide]
remaining binding at 0.3 µM (ACVR2A): 87% | remaining binding at 0.3 µM (ABL2): 100% | remaining binding at 0.3 µM (CSNK1A1L): 100% | remaining binding at 0.3 µM (PKN1): 54% | remaining binding at 0.3 µM (HCK): 100% | remaining binding at 0.3 µM (CSNK2A1): 61% | remaining binding at 0.3 µM (NEK7): 100% | remaining binding at 0.3 µM (RET): 100% | remaining binding at 0.3 µM [1]: 100% | remaining binding at 0.3 µM (PFPK5(P.falciparum)): 95% | remaining binding at 0.3 µM (MLK2): 97% | remaining binding at 0.3 µM (GCN2(Kin.Dom.2,S808G)): 100% | remaining binding at 0.3 µM (KIT(L576P)): 100% | remaining binding at 0.3 µM (ADCK3): 90% | remaining binding at 0.3 µM (CSNK1G1): 79% | remaining binding at 0.3 µM (PIK3CA(M1043I)): 100% | remaining binding at 0.3 µM (SGK3): 61% | remaining binding at 0.3 µM [2]: 100% | remaining binding at 0.3 µM (MRCKA): 100% | remaining binding at 0.3 µM (PAK2): 88% | remaining binding at 0.3 µM (CSNK1E): 76%
